The results in this text go back to PubChem BioAssay (NCI).

What all share (test): growth of human tumour cells (NCI), 48 h
Assay [1] relates to RPMI-8226 leukemia.
In assay [2] the test system is SK-MEL-5 melanoma.
Assay [3] deals with PC-3 prostate.
Assay [4] deals with ACHN renal.
Assay [5] has as its system SF-539 CNS.
Assay [6] deals with SK-MEL-28 melanoma.
The subject of assay [7] is A498 renal.
Assay [8] deals with HCT-116 colon.
The subject of assay [9] is 786-0 renal.
The test system of assay [10] is U251 CNS.

Each structure is given as a SMILES string. “And” between values parts separate entries of the source, which are not always exact repeats. Equal entries are not always repeated.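 Values below derive from 48-hour exposures of cells grown in 96-well plates, with endpoints linearly interpolated between the two concentrations bracketing the appropriate inhibition level. GI50 is the concentration that inhibits growth by half. Definition used: TGI = concentration required for complete inhibition of growth.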

With `Oc1ccc(O)c2c1C1(Cl)C(Cl)=C(Cl)C2(Cl)C1(Cl)Cl`, the GI50 in assay [1] was 4.82 µM; in assay [2] it was 5.09 µM; in assay [3], 3.14 µM; in assay [4], 4.43 µM; in assay [5], 4.38 µM; in assay [6] it was 10.9 µM. Moreover, the GI50 is 1.83 µM in assay [7], 3.07 µM in assay [8], 7.84 µM in [9] and 5.76 µM in assay [10]. Further, the TGI was 63.3 µM in [1]; 17 µM in assay [2]; 16.4 µM in assay [3]; 21.3 µM in assay [4]; 18.7 µM in [5]; 81 µM in [6]. The TGI in [7] was found to be 6.23 µM; in assay [8] it was 12.8 µM; in [9], 22.4 µM; in [10] it was 20 µM.

On to `NCCSC(C[N+](=O)[O-])c1ccccc1Cl` (stereo unspecified), for which the GI50 is 0.727 µM in assay [1]; 3.03 µM in assay [2]; 4.19 µM in [3]; 9.85 µM in assay [4]; 2.42 µM in assay [5]; 2.08 µM in [6]. Moreover, the GI50 in assay [7] was 2.3 µM; in [8] it was 1.18 µM; in assay [9] it was 2.16 µM; in assay [10] it was 1.85 µM. For the same molecule, the TGI is 5.3 µM in assay [1]; 10.1 µM in assay [2]; above 32.7 µM in assay [3]; 22.1 µM in assay [4]; 5.49 µM in assay [5]; 4.6 µM in assay [6]. In addition, the TGI came out at 4.69 µM in [7], 3.08 µM in assay [8], 4.33 µM in assay [9] and 3.81 µM in [10].

As for `O=C1C=C(OCCCl)C(=O)c2c(O)ccc(O)c21`, the GI50 in [1] was 1.38 µM; in assay [3], 2.67 µM; in assay [4] it was 1.89 µM; in assay [5], 1.58 µM; in assay [6], 2.08 µM; in assay [7] it was 2.38 µM. Besides, the GI50 in assay [8] is 1.33 µM; in [9] it was 2.52 µM; in assay [10] it was 2.76 µM. The TGI is 6.78 µM and 4.08 µM in assay [1]; 0.321 µM and 0.299 µM in assay [2]; 4.32 µM and 10.1 µM in assay [3]; 2.89 µM and 4.95 µM in assay [4]; 2.82 µM and 2.93 µM in assay [5]; 2.55 µM and 4.25 µM in assay [7]. The TGI in assay [8] is 1.33 µM and 3.2 µM; in [9] it was 3.22 µM and 6.75 µM; in assay [10], 3.33 µM and 7.48 µM.

`CN(C)N=Nc1nn(C(=O)Nc2ccc(Cc3ccccc3)cc2)c2ccccc12`: the GI50 in assay [1] is 5.06 µM; in assay [2], 0.122 µM; in [3], 4.65 µM; in assay [4], 0.282 µM; in assay [5] it was 1.46 µM; in assay [7] it was above 58.9 µM. Besides, the GI50 in assay [8] was above 100 µM; in [9], 5.25 µM. Besides, the TGI in assay [1] is above 100 µM; in assay [2] it was 1.09 µM; in assay [3] it was above 100 µM; in assay [4] it was above 100 µM; in assay [5], above 23.7 µM; in [6], above 100 µM. Moreover, the TGI in assay [7], in assay [8], in [9] and in [10] was above 100 µM each time.

Consider `Nc1ccccc1C#C/C=C\C#Cc1ccccc1F`, for which the GI50 is 2.66 µM in assay [1]; 2.73 µM in [2]; 6.8 µM in assay [3]; 13.5 µM in assay [4]; 3.82 µM in assay [5]; 18 µM in [6]. Besides, the GI50 in assay [7] was 7.66 µM; in [8], 3.52 µM; in assay [9], 9.28 µM; in [10] it was 6.44 µM. Also, the TGI in assay [1] is 23.8 µM; in [2], 12.3 µM; in assay [3], above 100 µM; in assay [4], 40 µM; in [5] it was 15.7 µM; in [6], 75.1 µM. The TGI in assay [7] was found to be 21 µM; in assay [8], 16.1 µM; in [9], 23.6 µM; in assay [10], 20.7 µM.

With `Cn1c2ccccc2c2[nH]c3ccccc3c(=O)c21`, the TGI in [1], in assay [2], in [3], in [4], in assay [5] and in assay [6] was above 100 µM each time. The TGI in [7], in [8], in assay [9] and in assay [10] was above 100 µM throughout.

With `CNc1ncc2cc(Oc3ccc(F)cc3F)c(=O)n(C)c2n1`, the GI50 in assay [1], in assay [2], in [3], in [4], in [5] and in assay [6] was above 25 µM in each case. Besides, the GI50 in assay [7] was 11.9 µM; in assay [8], above 25 µM; in assay [9], above 25 µM; in assay [10], above 25 µM. Also, the TGI in assay [1], in assay [2], in assay [3], in [4], in [5] and in [6] was above 25 µM in each case. Also, the TGI in [7], in assay [8], in assay [9] and in [10] was above 25 µM in each case.

On to `Nc1cc(-c2ccccc2)n(C(=O)Nc2ccc(Oc3ccccc3)cc2)n1`, for which the GI50 was 19.7 µM in assay [1]; above 100 µM in assay [2]; above 100 µM in assay [3]; 34.9 µM in [4]; 30.1 µM in assay [5]; 1.62 µM in assay [6]. The GI50 in assay [7] was above 100 µM; in assay [8] it was 53.5 µM; in assay [9], 29.5 µM; in [10], 32.1 µM. Further, the TGI was above 100 µM in assay [1]; above 100 µM in assay [2]; above 100 µM in assay [3]; above 100 µM in assay [4]; above 100 µM in assay [5]; 39.2 µM in assay [6]. The TGI in assay [7], in [8], in [9] and in assay [10] was above 100 µM each time.
